Test results: the METLIN SMRT retention time set (Domingo-Almenara et al. 2019)

Assay: gradient 5% acetonitrile 3 min, to 50% in 2 min, to 85% in 15 min, held 3 min, 100 µL/min
Conditions: column: Zorbax Extend-C18 2.1 x 50 mm; eluents: water / acetonitrile, 0.1% formic acid
How it was run: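 Mixtures of ~100 pure standards were chromatographed on a Zorbax Extend-C18 column (2.1 × 50 mm, 1.8 μm) at 100 μL/min using water and acetonitrile, each with 0.1% formic acid. Detection used a quadrupole time-of-flight mass spectrometer in positive and negative ionization mode, and data collection spanned 3 months. Retention time was obtained from adduct peaks picked computationally and each checked manually.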

| Structure (SMILES) | RP-LC retention time [s] |
| --- | --- |
| COCCn1cc2c3c(cccc31)CN(C(=O)Nc1ccc(OC)cc1)CC2 | 833 |
| COc1ccc(-c2noc(C3CC(=O)N(c4ccc(OC)c(OC)c4)C3)n2)cc1OC (configuration not stated) | 743 |
| Cc1ccc(N2C(=O)C3N=NN(c4ccc(F)cc4)C3C2=O)cc1C (configuration not stated) | 1050 |
| O=C(NC1CCCCCCC1)C1CCCN(C(=O)c2cc(-c3ccncc3)n[nH]2)C1 (configuration not stated) | 646 |
| CCOc1cc2c(cc1OCC)C1C(C(=O)N3CCN(C)CC3)c3ccccc3C(=O)N1CC2 (configuration not stated) | 567 |
| COc1cccc(CN2C[C@@H]3C(=O)N(Cc4ccc5c(c4)OCO5)C(=O)[C@@H]3C2)c1 | 724 |
| CCOCC(=O)N1CCC(Oc2nccnc2N2CCOCC2)C1 (configuration not stated) | 640 |
| CCCC(=O)N1CC(c2nc(-c3ccccc3)no2)C2(CCOCC2)C1 (configuration not stated) | 850 |
| O=C(Nc1ncnc2c1CCC2)c1ccc(S(=O)(=O)N2CCc3ccccc3C2)cc1 | 783 |
| O=C(Cc1ccc(Cl)cc1)N1CCc2cc(-c3ccno3)ccc21 | 1030 |
| CCOC(=O)c1c(C)[nH]c(C(=O)N2CCC(CC(=O)NCc3ccccc3)CC2)c1C | 762 |
| Cc1noc(C)c1C(=O)N1CCCC1c1ccc(Cl)cc1 (configuration not stated) | 855 |
| COCCc1noc(C2Cc3ccccc3N2C(=O)NCc2ccco2)n1 (configuration not stated) | 807 |
| Cc1ccc(-c2cc3c4nn(CC(=O)NC5CCCCC5)c(=O)n4ccn3n2)cc1C | 980 |
| C=CCn1c(=O)c2ccccc2n(Cc2nc(-c3ccc(OCC)c(OC)c3)no2)c1=O | 682 |
| CCCC(=O)Nc1ccc2c(c1)N(C(=O)c1ccco1)CCC2 | 604 |
| Cc1ccc(Nc2cc(C)nc3ccnn23)cc1 | 620 |
| Cc1ccccc1-c1ccc(N2CCC(C(=O)Nc3ccc4c(c3)OCCO4)CC2)nn1 | 634 |
| COc1cccc(CNC2=NCCNC23CCN(S(=O)(=O)c2ccc(C(C)C)cc2)CC3)c1 | 836 |

| Structure (SMILES) | RP-LC retention time [s] |
| --- | --- |
| CCC(C)NC(=O)C1CCN(S(=O)(=O)c2c(C)nn(-c3ccc(F)cc3)c2C)CC1 (configuration not stated) | 842 |
| CCN1CCN(c2nc(F)c3c(c2F)S(=O)(=O)CCN3C2CCCCC2)CC1 | 700 |
| CN1C(=O)c2cc(C(=O)NC3CCN(Cc4ccccc4)CC3)nn2CC1(C)C(=O)NC1CCCC1 (configuration not stated) | 610 |
| COc1cccc(C(=O)NC2CCN(c3cc(-c4ccc(Cl)cc4)[nH]n3)C2)c1OC (configuration not stated) | 807 |
| O=C(NCC(c1cccnc1)c1c[nH]c2ccccc12)Nc1ccc(F)cc1F (configuration not stated) | 674 |
| CCCOc1cc(N2CCN(S(=O)(=O)CCC)CC2)nc(C)n1 | 606 |
| Cc1ccc(-c2nc3cnccn3c2Nc2cc(C)cc(C)c2)cc1 | 1040 |
| Cc1nc2sccn2c1-c1nnc(SCc2ccc([N+](=O)[O-])cc2)n1C | 626 |
| Cc1nc2cc(N3CCC(C(=O)NCCC4=CCCCC4)CC3)cnc2nc1C | 767 |
| Cc1ncc2c(n1)CCCN(CC(=O)NC1CCCCCC1)C2=O | 682 |
| CCc1nncn1C1CCN(S(=O)(=O)c2cc(F)ccc2OC)CC1 | 696 |
| CC1CCN(S(=O)(=O)c2ccc3nn(Cc4ccccc4)c(=O)n3c2)CC1 | 893 |
| CC1(C(=O)NCCc2c[nH]c3ccccc23)CCCCC(=O)N1 (configuration not stated) | 656 |
| Cc1ccc(NC(=O)C(C)C2CCN(C(=O)Nc3ccccc3)CC2)cc1C (configuration not stated) | 900 |
| COc1cc(Cl)c(C)cc1-n1ccn(Cc2c(F)cccc2Cl)c(=O)c1=O | 855 |
| CS(=O)(=O)N1CCC(C(=O)NCc2csc(-c3cccs3)n2)CC1 | 694 |
| Cc1cccc(C)c1NC(=O)Cn1cnc2onc(C)c2c1=O | 731 |
| CCn1cc(C(=O)Nc2cccc(F)c2)c2cccnc21 | 892 |
